From patent US8163929B2, “Dihydropyridone amides as P2X7 modulators” (Roche Palo Alto LLC, priority 2008, dated 2012)

These compounds were tested against T1, P2X7 (UniProt Q99572) (assay: P2X7 activity of Table 1). Settings: pIC50 values for P2X7.
T1 sequence (Q99572 1-595): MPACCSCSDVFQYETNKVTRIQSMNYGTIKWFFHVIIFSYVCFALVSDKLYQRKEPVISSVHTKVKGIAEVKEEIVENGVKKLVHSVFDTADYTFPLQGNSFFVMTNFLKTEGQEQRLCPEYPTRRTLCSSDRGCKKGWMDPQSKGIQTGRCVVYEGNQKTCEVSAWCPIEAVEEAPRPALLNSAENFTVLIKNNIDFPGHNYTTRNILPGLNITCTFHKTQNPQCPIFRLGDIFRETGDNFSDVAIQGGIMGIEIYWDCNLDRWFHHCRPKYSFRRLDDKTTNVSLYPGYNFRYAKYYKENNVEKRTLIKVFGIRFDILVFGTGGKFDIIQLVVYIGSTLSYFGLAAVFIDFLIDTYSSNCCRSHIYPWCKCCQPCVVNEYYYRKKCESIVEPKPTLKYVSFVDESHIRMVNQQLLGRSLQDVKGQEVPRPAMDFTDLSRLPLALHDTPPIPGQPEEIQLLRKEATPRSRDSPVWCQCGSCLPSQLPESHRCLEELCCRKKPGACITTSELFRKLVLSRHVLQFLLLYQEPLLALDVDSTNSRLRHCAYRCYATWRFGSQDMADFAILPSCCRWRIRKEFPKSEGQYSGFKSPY
Assay type: cell-based
Outline: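 FLIPR calcium flux with fluo-3 in 1321N1 cells expressing human P2X7 and HEK293 cells expressing rat P2X7, in HBSS with 2 mM CaCl2 and 2.5 mM probenecid. Antagonist pre-incubated 20 min at room temperature, then BzATP added (100 μM human, 5 μM rat). Peak response over 5 min normalised to 5 μM ionomycin.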

| pIC50 | SMILES |
| --- | --- |
| 7.83 | Cc1cc(F)c(-c2cccn(C)c2=O)cc1NC(=O)C1=CN(C)C(=O)C[C@H]1c1ccc(F)cc1 [Compound 139, (S)-4-(4-Fluoro-phenyl)-1-methyl-6-oxo-1,4,5,6-tetrahydro-pyridine-3-carboxylic acid [4-fluoro-2-methyl-5-(1-methyl-2-oxo-1,2-dihydro-pyridin-3-yl)-phenyl]-amide] |
| 7.565 | Cc1ccc(-c2ccc[nH]c2=O)cc1NC(=O)C1=CN(C)C(=O)C[C@H]1c1ccc(F)cc1 [Compound 116, (S)-4-(4-Fluoro-phenyl)-1-methyl-6-oxo-1,4,5,6-tetrahydro-pyridine-3-carboxylic acid [2-methyl-5-(2-oxo-1,2-dihydro-pyridin-3-yl)-phenyl]-amide] |
| 7.255 | Cc1ccc(-c2cc(C)n(C[C@@H](C)O)n2)cc1NC(=O)C1=CN(C)C(=O)C[C@H]1c1ccc(F)cc1 [Compound 73, (S)-4-(4-Fluoro-phenyl)-1-methyl-6-oxo-1,4,5,6-tetrahydro-pyridine-3-carboxylic acid {5-[1-((R)-2-hydroxy-propyl)-5-methyl-1H-pyrazol-3-yl]-2-methyl-phenyl}-amide] |
| 7.715 | Cc1ccc(-c2cc(C)n(C)n2)cc1NC(=O)C1=CNC(=O)C[C@H]1c1ccc(F)cc1 [Compound 4, (S)-4-(4-Fluoro-phenyl)-6-oxo-1,4,5,6-tetrahydro-pyridine-3-carboxylic acid [5-(1,5-dimethyl-1H-pyrazol-3-yl)-2-methyl-phenyl]-amide] |
| 7.045 | Cc1cc(-c2ccc(C)c(NC(=O)C3=CNC(=O)C[C@H]3c3ccc(F)cc3)c2)ccn1 [Compound 54, (S)-4-(4-Fluoro-phenyl)-6-oxo-1,4,5,6-tetrahydro-pyridine-3-carboxylic acid [2-methyl-5-(2-methyl-pyridin-4-yl)-phenyl]-amide] |
| 6.885 | CCCn1nccc1-c1ccc(C)c(NC(=O)C2=CNC(=O)C[C@H]2c2ccc(F)cc2)c1 [Compound 32, (S)-4-(4-Fluoro-phenyl)-6-oxo-1,4,5,6-tetrahydro-pyridine-3-carboxylic acid [2-methyl-5-(2-propyl-2H-pyrazol-3-yl)-phenyl]-amide] |
| 8.256 | Cc1ccc(-c2ccn[nH]c2=O)cc1NC(=O)C1=CNC(=O)C[C@H]1c1ccc(F)cc1 [Compound 56, (S)-4-(4-Fluoro-phenyl)-6-oxo-1,4,5,6-tetrahydro-pyridine-3-carboxylic acid [2-methyl-5-(3-oxo-2,3-dihydro-pyridazin-4-yl)-phenyl]-amide] |
| 6.44 | Cc1ccc(-n2ccc(=O)[nH]c2=O)cc1NC(=O)C1=CN(C)C(=O)C[C@H]1c1ccc(F)cc1 [Compound 124, (S)-4-(4-Fluoro-phenyl)-1-methyl-6-oxo-1,4,5,6-tetrahydro-pyridine-3-carboxylic acid [5-(2,4-dioxo-3,4-dihydro-2H-pyrimidin-1-yl)-2-methyl-phenyl]-amide] |
| 6.535 | CCn1c(C)nnc1-c1ccc(C)c(NC(=O)C2=CNC(=O)C[C@H]2c2ccc(F)cc2)c1 [Compound 60, (S)-4-(4-Fluoro-phenyl)-6-oxo-1,4,5,6-tetrahydro-pyridine-3-carboxylic acid [5-(4-ethyl-5-methyl-4H-[1,2,4]triazol-3-yl)-2-methyl-phenyl]-amide] |
| 6.585 | Cc1ccc(-c2ccc(=O)[nH]n2)cc1NC(=O)C1=CN(C)C(=O)C[C@H]1c1ccc(F)cc1 [Compound 118, (S)-4-(4-Fluoro-phenyl)-1-methyl-6-oxo-1,4,5,6-tetrahydro-pyridine-3-carboxylic acid [2-methyl-5-(6-oxo-1,6-dihydro-pyridazin-3-yl)-phenyl]-amide] |
| 7.8367 | Cc1ccc(-c2ccn[nH]c2=O)cc1NC(=O)C1=CN(C)C(=O)C[C@H]1c1ccc(F)cc1 [Compound 72, (S)-4-(4-Fluoro-phenyl)-1-methyl-6-oxo-1,4,5,6-tetrahydro-pyridine-3-carboxylic acid [2-methyl-5-(3-oxo-2,3-dihydro-pyridazin-4-yl)-phenyl]-amide] |
